# Data reported in US20240115597A1, “METHOD FOR TREATING AND/OR PREVENTING HEARING LOSS BY USING TOLL-LIKE RECEPTOR 7 AND/OR 9 ANTAGONIST” (Kaohsiung Chang Gung Memorial Hospital, priority 2022, published 2024).
# Entries after “also recorded” stand apart in the source; their conditions may differ.
# What was measured:
# CBA/CaJ mice [1] = test: Noise-induced auditory brainstem response (ABR) threshold shift; type: in vivo; conditions: 3 weeks after 106-dB noise exposure, chloroquine 50 mg/kg intraperitoneal, ODN 2088 5 mg/kg subcutaneous, four treatments
# Procedure: (§1) The animal models used in this example and the following examples are as follows. Male CBA/CaJ mice at 4-6 weeks of age were purchased from National Laboratory Animal Center in Taiwan. The mice accessed to water and a regular mouse diet, and were kept at 22±1° C. under a standard 12h:12h light-dark cycle to acclimate for one week before the experiments. The lights were on from 5:00 to 17:00).
# (§2) The experimental procedure of noise exposure is as follows. Three awake CBA/CaJ mice in the same group were placed in a sound chamber, with one mouse per stainless steel cage. The sound chamber was fitted with a loudspeaker, driven by an amplifier connected to a CD player. Broadband noise (BBN) with a frequency of 2 to 20 kHz was compiled onto a CD and equalized with software. […]
# (§3) The experimental procedure of auditory brainstem response (ABR) is as follows. […] Body temperature was monitored and maintained near 37° C. with a heating pad. […] ABRs were measured at 8, 16, and 32 kHz. […] Thresholds were determined for each frequency by reducing the intensity in 10 dB increments and then in 5 dB steps near the threshold until no organized responses were detected. […] ABR thresholds were detected at before noise exposure and one week/three week after noise exposure. […]
# CBA/CaJ mice [2] = test: Noise-induced reduction of ABR wave I amplitude; type: in vivo; conditions: 16 kHz; 106-dB noise; chloroquine 50 mg/kg intraperitoneal, ODN 2088 5 mg/kg subcutaneous
# Procedure: as §1
# The experimental procedure of noise exposure is as follows. Three awake CBA/CaJ mice in the same group were placed in a sound chamber, with one mouse per stainless steel cage. The sound chamber was fitted with a loudspeaker, driven by an amplifier connected to a CD player. […]
# as §3
# To test if TLR7/9 antagonists could protect the auditory nerve against acoustic trauma, we measured the ABR wave I amplitudes at 16 kHz, which is one of the most sensitive frequencies of the auditory spectrum in the mice.
# outer hair cell (OHC) = test: Outer hair cell (OHC) counts in cochlear surface preparations after 106-dB noise; type: in vivo, mice; conditions: basal segment, chloroquine 50 mg/kg intraperitoneal
# Procedure: as §1, §2
# To examine if TLR7/9 antagonist could protect the OHC from acoustic trauma, we counted the OHCs in surface preparations after 106-dB noise exposure. […]
# The experimental procedure of immunocytochemistry for outer hair cell (OHC) counts is as follows. […] Cell populations in the phalloidin-stained stereociliary bundles and circumferential F-actin rings around the cuticular plate of the OHCs were evaluated using an epifluorescence microscope. […] Each successive 0.25 mm field was evaluated beginning from the apex to the base for counting the number of OHCs. […]
# [3] = system: cochlear cytokines and chemokines; test: Quantitative real-time RT-PCR of cochlear cytokine and chemokine gene expression after noise; type: in vivo, mice; conditions: one day after systemic (intraperitoneal) chloroquine treatment; noise exposure; normalized to Actb
# Procedure: as §1, §2
# To test if TLR7/9 antagonist could affect the expression of cochlear cytokines and chemokines after noise, we used quantitative real-time reverse transcription polymerase chain reaction (quantitative real-time RT-PCR) to analyze gene expression in the cochlea one day after systemic chloroquine treatment.
# The experimental procedure of RNA isolation and quantitative real-time RT-PCR is as follows. […] Real-time quantitative PCR was performed in an ABI 7500 Fast Real-Time System (Applied Biosystems). […]
# NF-κB = NF-κB immunostaining of the cochlea after noise; type: in vivo, mice; conditions: lateral wall, middle-basal segment; 106-dB noise
# Procedure: as §1
# (§4) The experimental procedure of noise exposure is as follows. Three awake CBA/CaJ mice in the same group were placed in a sound chamber, with one mouse per stainless steel cage. The sound chamber was fitted with a loudspeaker, driven by an amplifier connected to a CD player. Broadband noise (BBN) with a frequency of 2 to 20 kHz was compiled onto a CD and equalized with software. Sound levels were calibrated with a sound level meter (type 2250; Brtiel & Kja✓r) fitted with a microphone (type 4189; Brtiel & Kja✓r, Na✓rum, Denmark) at the locations of each cage within the sound chamber, before and after exposure to the noise. The control (sham) group was put in the same cage without exposure to noise for 2 hours. An intensity of 106 dB broadband noise was used to produce permanent threshold shifts.
# (§5) Chloroquine was dissolved in saline. ODN 2088 was dissolved in endotoxin-free water. The control group was endotoxin-free water. […]
# Iba-1±cells = test: Iba-1± cell (macrophage) infiltration into the cochlea after noise; type: in vivo, mice
# Procedure: as §1, §4, §5
smiles,measurement,setting,value
CCN(CC)CCCC(C)Nc1ccnc2cc(Cl)ccc12 (stereo not drawn) [chloroquine],noise-induced ABR threshold shift,CBA/CaJ mice [1],attenuate 106-dB noise-induced auditory threshold shifts
same,noise-induced ABR threshold shift,CBA/CaJ mice [1]; listed as Chloroquine,decreased the noise-induced ABR thresholds shift
same,noise-induced decrease in ABR wave I amplitude,CBA/CaJ mice [2],attenuate 106-dB noise-induced wave I amplitude reduction at 16 kHz; also recorded: attenuated the noise-induced decrease in the amplitudes
same,percentage of OHC loss,outer hair cell (OHC),decreases noise-induced outer hair cell (OHC) loss; also recorded: attenuated the percentage of OHC loss over this area
same,"mRNA expression of Tlr9, MyD88, Il-1β, Tnf-α and Irf-7 in the cochlea",[3],decreases noise-induced elevation of cochlear cytokines and chemokines expression; also recorded: attenuated these changes
same,"noise-induced elevation of Ccl2, Ccl4 and Ccl12 expression in the cochlea",[3],decreases noise-induced elevation of cochlear cytokines and chemokines expression; also recorded: decreased the noise-induced elevation
same,immunostaining of NF-κB in the cochlea,NF-κB,attenuates noise-induced nuclear factor kappa-B (NF-κB) immunostaining of the cochlea; also recorded: decreased the immunostaining of NF-κB
same,"number of Iba-1±signals, quantification of immunofluorescence",Iba-1±cells; each segment of the cochlea,reduces the number of Iba-1macrophage infiltration in the cochlea; also recorded: decreases the number of Iba-1signals in each segment of the cochlea
same,"Iba-1±cell infiltration, immunohistochemistry",Iba-1±cells; lower spiral ligament of the cochlea,attenuates noise-induced infiltration of Iba-1macrophages; also recorded: attenuates the increase in Iba-1cell infiltration
